In patent publication US10167262B2, “Herbicidal substituted 3-arylpyrazoles” (FMC CORPORATION, priority 2014, dated 2019):

Tests used:
Format in all cases: in vivo
[1] = system: waterhemp_RES2, (ALS & HPPD resistant common waterhemp, Amaranthus rudis); assay: Test E postemergence greenhouse test, plant response rating 0-100; details: scale 0 to 100
Method in brief: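 Visual ratings, 0 (no effect) to 100 (complete control), made versus controls 14–21 days after postemergence application in the greenhouse. Plants were at 1- to 4-leaf stage (2–18 cm) in peat moss/vermiculite potting medium.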

[2] = system: arrowleaf sida (Sida rhombifolia); assay: Test E pre-/postemergence greenhouse test, plant response rating 0-100; details: for Plant response rating, Arrowleaf Sida: Postemergence; for Arrowleaf Sida plant response rating: Preemergence
Method in brief: (§1)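 Pre: seeded silt loam sprayed; post: 1–4-leaf plants (2–18 cm) in peat-based mix sprayed. Formulation: non-phytotoxic solvent + surfactant. Greenhouse 14–21 d; visual rating vs controls, 0 = no effect, 100 = complete control.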

[3] = system: fall panicum (Panicum dichotomiflorum); assay: as above; details: scale 0 to 100; for Plant response rating, Panicum, Fall: Postemergence; for Panicum, Fall plant response rating: Preemergence
Method in brief: as §1

[4] = system: dayflower (Virginia (VA) dayflower, Commelina virginica); assay: as above; details: scale 0 to 100; for Plant response rating, Dayflower, VA: Postemergence; for Dayflower, VA plant response rating: Preemergence
Method in brief: as §1

[5] = system: wild poinsettia (Euphorbia heterophylla); assay: as above; details: scale 0 to 100; for Plant response rating, Poinsettia, Wild: Postemergence; for Poinsettia, Wild plant response rating: Preemergence
Method in brief: as §1

[6] = system: palmer pigweed (Amaranthus palmeri); assay: as above; details: scale 0 to 100; for Plant response rating, Pigweed, Palmer: Postemergence; for Pigweed, Palmer plant response rating: Preemergence
Method in brief: as §1

corn (Zea mays) = assay: as above; details: scale 0 to 100; for Plant response rating, Corn: Postemergence; for Corn plant response rating: Preemergence
Method in brief: as §1

[7] = system: hairy beggarticks (Bidens pilosa); assay: as above; details: scale 0 to 100; for Plant response rating, Beggarticks: Postemergence; for Beggarticks plant response rating: Preemergence
Method in brief: as §1

[8] = system: field bindweed (Convolvulus arvensis); assay: as above; details: scale 0 to 100; for Plant response rating, Field Bindweed: Postemergence; for Field Bindweed plant response rating: Preemergence
Method in brief: as §1

[9] = system: Brazilian crabgrass (Digitaria horizontalis); assay: as above; details: Postemergence, scale 0 to 100
Method in brief: as §1

[10] = system: waterhemp (common waterhemp, Amaranthus rudis); assay: as above; details: scale 0 to 100; for Plant response rating, Waterhemp: Postemergence; for Waterhemp plant response rating: Preemergence
Method in brief: as §1

[11] = system: Italian ryegrass (Lolium multiflorum); assay: as above; details: scale 0 to 100; for Plant response rating, Ryegrass, Italian: Postemergence; for Ryegrass, Italian plant response rating: Preemergence
Method in brief: as §1

O=C(c1ccccc1)c1cn(S(=O)(=O)CC(F)(F)F)nc1-c1cc(Cl)cc(Cl)c1 [Compound 3]
85: Plant response rating, Arrowleaf Sida ([2]; 31 g ai/ha, scale 0 to 100) | Waterhemp plant response rating ([10]; 250 g ai/ha)
65: Pigweed, Palmer plant response rating ([6]; 125 g ai/ha) | Field Bindweed plant response rating ([8]; 500 g ai/ha)
15: Plant response rating, Poinsettia, Wild ([5]; 250 g ai/ha)
100: Pigweed, Palmer plant response rating ([6]; 500 g ai/ha)
70: Plant response rating, Waterhemp_RES2 ([1]; 125 g ai/ha) | Arrowleaf Sida plant response rating ([2]; 125 g ai/ha, scale 0 to 100)
95: Plant response rating, Waterhemp_RES2 ([1]; 250 g ai/ha) | Plant response rating, Waterhemp_RES2 ([1]; 500 g ai/ha) | Plant response rating, Arrowleaf Sida ([2]; 62 g ai/ha, scale 0 to 100) | Plant response rating, Arrowleaf Sida ([2]; 250 g ai/ha, scale 0 to 100) | Plant response rating, Beggarticks ([7]; 62 g ai/ha) | Plant response rating, Waterhemp ([10]; 31 g ai/ha)
98: Plant response rating, Arrowleaf Sida ([2]; 500 g ai/ha, scale 0 to 100 (0 no effect, 100 complete control)) | Arrowleaf Sida plant response rating ([2]; 500 g ai/ha, scale 0 to 100) | Plant response rating, Beggarticks ([7]; 125 g ai/ha) | Plant response rating, Beggarticks ([7]; 250 g ai/ha) | Plant response rating, Beggarticks ([7]; 500 g ai/ha) | Plant response rating, Waterhemp ([10]; 62 g ai/ha) | Plant response rating, Waterhemp ([10]; 125 g ai/ha) | Plant response rating, Waterhemp ([10]; 500 g ai/ha) | Waterhemp plant response rating ([10]; 500 g ai/ha)
40: Arrowleaf Sida plant response rating ([2]; 62 g ai/ha, scale 0 to 100) | Plant response rating, Pigweed, Palmer ([6]; 31 g ai/ha)
30: Beggarticks plant response rating ([7]; 500 g ai/ha)
25: Beggarticks plant response rating ([7]; 125 g ai/ha) | Beggarticks plant response rating ([7]; 250 g ai/ha)
80: Plant response rating, Waterhemp_RES2 ([1]; 62 g ai/ha)
75: Plant response rating, Pigweed, Palmer ([6]; 125 g ai/ha) | Plant response rating, Pigweed, Palmer ([6]; 500 g ai/ha) | Waterhemp plant response rating ([10]; 125 g ai/ha)
60: Plant response rating, Waterhemp_RES2 ([1]; 31 g ai/ha) | Plant response rating, Beggarticks ([7]; 31 g ai/ha)
20: Pigweed, Palmer plant response rating ([6]; 62 g ai/ha)
0: Arrowleaf Sida plant response rating ([2]; 31 g ai/ha, scale 0 to 100) | Plant response rating, Panicum, Fall ([3]; 31 g ai/ha) | Plant response rating, Panicum, Fall ([3]; 62 g ai/ha) | Plant response rating, Panicum, Fall ([3]; 125 g ai/ha) | Plant response rating, Panicum, Fall ([3]; 250 g ai/ha) | Plant response rating, Panicum, Fall ([3]; 500 g ai/ha) | Panicum, Fall plant response rating ([3]; 31 g ai/ha) | Panicum, Fall plant response rating ([3]; 62 g ai/ha) | Panicum, Fall plant response rating ([3]; 125 g ai/ha) | Panicum, Fall plant response rating ([3]; 250 g ai/ha) | Panicum, Fall plant response rating ([3]; 500 g ai/ha) | Plant response rating, Dayflower, VA ([4]; 31 g ai/ha) | Plant response rating, Dayflower, VA ([4]; 62 g ai/ha) | Plant response rating, Dayflower, VA ([4]; 125 g ai/ha) | Plant response rating, Dayflower, VA ([4]; 250 g ai/ha) | Plant response rating, Dayflower, VA ([4]; 500 g ai/ha) | Dayflower, VA plant response rating ([4]; 125 g ai/ha) | Dayflower, VA plant response rating ([4]; 250 g ai/ha) | Dayflower, VA plant response rating ([4]; 500 g ai/ha) | Plant response rating, Poinsettia, Wild ([5]; 31 g ai/ha) | Plant response rating, Poinsettia, Wild ([5]; 62 g ai/ha) | Plant response rating, Poinsettia, Wild ([5]; 125 g ai/ha) | Poinsettia, Wild plant response rating ([5]; 125 g ai/ha) | Poinsettia, Wild plant response rating ([5]; 250 g ai/ha) | Poinsettia, Wild plant response rating ([5]; 500 g ai/ha) | Pigweed, Palmer plant response rating ([6]; 31 g ai/ha) | Plant response rating, Corn (corn (Zea mays); 31 g ai/ha) | Plant response rating, Corn (corn (Zea mays); 62 g ai/ha) | Plant response rating, Corn (corn (Zea mays); 125 g ai/ha) | Plant response rating, Corn (corn (Zea mays); 250 g ai/ha) | Plant response rating, Corn (corn (Zea mays); 500 g ai/ha) | Corn plant response rating (corn (Zea mays); 31 g ai/ha) | Corn plant response rating (corn (Zea mays); 62 g ai/ha) | Corn plant response rating (corn (Zea mays); 125 g ai/ha) | Corn plant response rating (corn (Zea mays); 250 g ai/ha) | Corn plant response rating (corn (Zea mays); 500 g ai/ha) | Beggarticks plant response rating ([7]; 31 g ai/ha) | Beggarticks plant response rating ([7]; 62 g ai/ha) | Plant response rating, Field Bindweed ([8]; 31 g ai/ha) | Plant response rating, Field Bindweed ([8]; 62 g ai/ha) | Plant response rating, Field Bindweed ([8]; 125 g ai/ha) | Plant response rating, Field Bindweed ([8]; 250 g ai/ha) | Plant response rating, Field Bindweed ([8]; 500 g ai/ha) | Field Bindweed plant response rating ([8]; 31 g ai/ha) | Field Bindweed plant response rating ([8]; 62 g ai/ha) | Field Bindweed plant response rating ([8]; 125 g ai/ha) | Field Bindweed plant response rating ([8]; 250 g ai/ha) | Plant response rating, Crabgrass, Brazil ([9]; 31 g ai/ha) | Plant response rating, Crabgrass, Brazil ([9]; 62 g ai/ha) | Plant response rating, Crabgrass, Brazil ([9]; 125 g ai/ha) | Plant response rating, Crabgrass, Brazil ([9]; 250 g ai/ha) | Plant response rating, Crabgrass, Brazil ([9]; 500 g ai/ha) | Waterhemp plant response rating ([10]; 31 g ai/ha) | Plant response rating, Ryegrass, Italian ([11]; 31 g ai/ha) | Plant response rating, Ryegrass, Italian ([11]; 62 g ai/ha) | Plant response rating, Ryegrass, Italian ([11]; 125 g ai/ha) | Plant response rating, Ryegrass, Italian ([11]; 250 g ai/ha) | Plant response rating, Ryegrass, Italian ([11]; 500 g ai/ha) | Ryegrass, Italian plant response rating ([11]; 31 g ai/ha) | Ryegrass, Italian plant response rating ([11]; 62 g ai/ha) | Ryegrass, Italian plant response rating ([11]; 125 g ai/ha) | Ryegrass, Italian plant response rating ([11]; 250 g ai/ha) | Ryegrass, Italian plant response rating ([11]; 500 g ai/ha)
10: Plant response rating, Poinsettia, Wild ([5]; 500 g ai/ha)
50: Plant response rating, Pigweed, Palmer ([6]; 62 g ai/ha) | Pigweed, Palmer plant response rating ([6]; 250 g ai/ha) | Waterhemp plant response rating ([10]; 62 g ai/ha)
90: Plant response rating, Arrowleaf Sida ([2]; 125 g ai/ha, scale 0 to 100) | Arrowleaf Sida plant response rating ([2]; 250 g ai/ha, scale 0 to 100) | Plant response rating, Pigweed, Palmer ([6]; 250 g ai/ha) | Plant response rating, Waterhemp ([10]; 250 g ai/ha)
